Two substances from article PMC4735555, “Crystal structure of the N-myristoylated lipopeptide-bound MHC class I complex” (Nature Communications, 2016) can be followed below.

The test system of assay [1] is 2N5.1 TCR. The assay is described as follows: SPR binding of soluble 2N5.1 TCR to peptide-loaded Mamu-A*02. On the set-up: species or system rhesus macaque. Particulars: in words; Biacore 3000, 30 °C; soluble 2N5.1 TCR αβ dimer; YY9 peptide-loaded Mamu-A*02 immobilized; pH 7.5. The source says: (§1) Single-chain MHC proteins in which β2m was linked via a Gly-Ser linker (GGGGSGGSGSGGGSS) to the ectodomain of either Mamu-B*098 or Mamu-A*02, followed by a biotinylation sequence peptide (LHHILDAQKMVWNHR), were also expressed in E. coli and were purified in a similar manner to the trimer complex of Mamu-B*098, β2m and C14nef5. The β2m-linked Mamu-B*098 protein was refolded without C14nef5, whereas the β2m-linked Mamu-A*02 protein was refolded in the presence of the YY9 peptide (YTSGPGIRY). These recombinant proteins (3 mg) were biotinylated by being incubated for 12 h at 20 °C with 2 μg of BirA enzyme (Sigma-Aldrich, St Louis, MO) in a biotinylation buffer containing 100 mM Tris-HCl pH 8.0, 5 mM MgCl2, 4.5 mM ATP and 4 mM D-biotin, and were purified by size-exclusion chromatography.
TCR dimers were generated by the disulfide-linked TCR method. […]
The binding of ligands to MHC class I molecules was analysed using the Octet RED96 system equipped with a streptavidin-conjugated biosensor (Pall ForteBio, Menlo Park, CA) according to the manufacturer's instructions. […] After reference subtraction, binding signals were analysed using the BIAevaluation 3.1 software. […]
In general terms: SPR reads the build-up and loss of mass on a sensor chip optically.

Assay [2] relates to 2N5.1 (plate-coated Mamu-B*098). The assay is described as follows: T-cell assay with plate-coated Mamu-B*098, IFN-γ release by 2N5.1. The class given is cell-based, rhesus macaque. Conditions: 10 μg MHC protein, 1 μg lipopeptide loaded overnight 37 °C; 5 × 10^4 T cells per well, 24 h; IFN-γ ELISA.
Text: as §1
Streptavidin-coated 96-well plates (Thermo Scientific, Hudson, NH) were overlaid with 10 μg of the biotinylated β2m-linked Mamu-B*098 and Mamu-A*02 proteins, and lipopeptide Ags (1 μg) were loaded by an overnight incubation at 37 °C. The wells were then washed extensively and T cells (5 × 10^4 per well) were added. After a 24-h incubation at 37 °C, aliquots of the culture supernatants were collected and the amount of IFN-γ released into the medium was measured by a human/monkey IFN-γ enzyme-linked immunosorbent assay kit (Mabtech, Nacka Strand, Sweden).

Assay [3] concerns Mamu-B*098. The assay is described as follows: Biolayer interferometry binding to β2m-linked Mamu-B*098. Particulars: Octet RED96; biotinylated β2m-linked Mamu-B*098; lipopeptide 10 μM, 45 min, then 30 min without; 20 mM Tris-HCl pH 7.5, 150 mM NaCl, 2% DMSO; 30 °C; representative of three independent experiments. Further details: species or system rhesus macaque.
Text: as §1
The binding of ligands to MHC class I molecules was analysed using the Octet RED96 system equipped with a streptavidin-conjugated biosensor (Pall ForteBio, Menlo Park, CA) according to the manufacturer's instructions. Biotinylated β2m-linked Mamu-B*098 and Mamu-A*02 proteins were immobilized on the sensor tip surface with a signal magnitude of ∼5.0 nm. […] After reference subtraction, binding signals were analysed using the BIAevaluation 3.1 software. […]
A general note: In BLI a coated tip is dipped into the sample, and binding shifts an interference pattern.

In the case of YTSGPGIRY [YY9, YY9 peptide (…)], in assay [1], the “interaction of 2N5.1 TCR with peptide-loaded Mamu-A*02 (SPR)” value is “no interaction was detected”.

Turning to C14-GGAAS, in assay [2], the “IFN-γ response of 2N5.1 to plate-coated Mamu-B*098 with lipopeptide Ag” value is recorded as “failed to stimulate 2N5.1 even in the presence of Mamu-B*098”. Besides, the “physical interaction with immobilized Mamu-B*098 (biolayer interferometry)” value in assay [3] is listed as “bound to B*098”.
